This assay has as its system KB. Description: Cytotoxicity against human KB cells. In kind it is functional. The conditions noted are these: read-out: ED50 (the source's name).

Converted amounts (≈) assume the structure as drawn.

Take `CC(=O)OC[C@]12[C@H](OC(C)=O)[C@H](OC(C)=O)[C@@H]3[C@@H](OC(C)=O)[C@@]14O[C@@]3(C)COC(=O)c1cccnc1[C@H](C)[C@H](C)C(=O)O[C@@H]([C@H](OC(=O)c1ccc(=O)n(C)c1)[C@@H]2OC(C)=O)[C@@]4(C)O` [EMARGINATINE A]: the EC50 came to 4 µg/mL (≈ 4.45 µM).

`CC(=O)OC[C@]12[C@H](OC(=O)c3ccccc3)[C@@H](OC(C)=O)[C@@H]3[C@@H](OC(C)=O)[C@@]14O[C@@]3(C)COC(=O)c1cccnc1[C@H](C)[C@H](C)C(=O)O[C@@H]([C@H](OC(=O)c1ccc(=O)n(C)c1)[C@@H]2OC(C)=O)[C@@]4(C)O` [EMARGINATINE B]: the EC50 was found to be 0.4 µg/mL (≈ 0.416 µM).

These data come from ChEMBL document CHEMBL1151148, “Antitumor agents, 112. Emarginatine B, a novel potent cytotoxic sesquiterpene pyridine alkaloid from Maytenus emarginata” (1990).
